From patent US8501977B2, “Platinum complex and pharmaceutical composition containing the same” (Unitech Co., Ltd., priority 2008, dated 2013)
Entries after “also recorded” stand apart in the source; their conditions may differ.

Legend:
[1] = tested on: MKN-1 (human gastric cancer cell); assay: MTS cell proliferation test, MKN-1 (Embodiment 8); format: cell-based
Protocol: (§1) Respectively, the S medicine test solution was prepared by dissolving the ((S,S,S) cis,cis-spiro[4,4]nonane-1,6-diamine)oxalatoplatinum(II) complex (compound 2; hereinafter, it is described as S medicine) into the dimethylsulfoxide (DMSO) with the concentration of 10 mg/ml and the R medicine test solution was prepared by dissolving the ((R,R,R)cis,cis-spiro[4,4]nonane-1,6-diamine) oxalatoplatinum(II) complex (compound 3; hereinafter, it is described as R medicine) into the dimethylsulfoxide (DMSO) with the concentration of 10 mg/ml.
(§2) The test was performed by using A549 (human lung cancer cell), LU65A (human lung cancer cell), RERF-LC-MA (human lung cancer cell), LU99 (human lung cancer cell), H460 (human lung cancer cell), HCT116 (human colon cancer cell), HT-29 (human colon cancer cell), MKN-45 (human gastric cancer cell), MKN-1 (human gastric cancer cell), U937 (human lymphoma cell), KP-1N (human pancreas cancer cell) and B2452 (human mesotheliama cell) as the cancer cell.
(§3) These cells were suspended in the each culture medium that the serum of 10% was added, and were dispensed in 96-well plate. And then, these were cultured in 5% CO2 at 37 degrees centigrade during a night. Next day, the S medicine test solution and the R medicine test solution were prepared in the culture medium to the various concentrations (5, 10, 20 μg/ml), and were dispensed into the plates that the cells were set preliminarily. And further, these were cultured in 5% CO2 at 37 degrees centigrade for three days.
(§4) The cell proliferation after the medicine addition was measured on the 3rd day from the 1st day after the medicine addition by the MTS method (kit for cell proliferation test manufactured by Promega Company).
(§5) The inhibition rate (%) of the cell proliferation was obtained from the measured MTS value by the following formula. Inhibition rate(%)=(1-MTS value of medicine addition group/MTS value of medicine non-addition group)×100
(§6) Because the value which was obtained by the above-mentioned formula represents the inhibition rate of the cell proliferation, the higher the numerical value is, the higher the medicine effect is. It is desired that the one whose value is 50% or more has the medicine effect.

[2] = tested on: MKN-45 (human gastric cancer cell); assay: MTS cell proliferation test, MKN-45 (Embodiment 8); format: cell-based
Protocol: as §1, §2, §3, §4, §5, §6

[3] = tested on: H2452 cell (human mesothelicana cell); assay: MTS cell proliferation test, H2452 (Embodiment 8); format: cell-based
Protocol: as §1, §2, §3, §4, §5, §6

[4] = tested on: HT-29 (human colon cancer cell); assay: MTS cell proliferation test, HT-29 (Embodiment 8); format: cell-based
Protocol: as §1, §2, §3, §4, §5, §6

[5] = tested on: HCT116 (human colon cancer cell); assay: MTS cell proliferation test, HCT116 (Embodiment 8); format: cell-based
Protocol: as §1, §2, §3, §4, §5, §6

[6] = tested on: KP-1N (human pancreas cancer cell); assay: MTS cell proliferation test, KP-1N (Embodiment 8); format: cell-based
Protocol: as §1, §2, §3, §4, §5, §6

[7] = tested on: LU65A (human lung cancer cell); assay: MTS cell proliferation test, LU65A (Embodiment 8); format: cell-based
Protocol: as §1, §2, §3, §4, §5, §6

[8] = tested on: A549 (human lung cancer cell); assay: MTS cell proliferation test, A549 (Embodiment 8); format: cell-based
Protocol: as §1, §2, §3, §4, §5, §6

[9] = tested on: LU99 (human lung cancer cell); assay: MTS cell proliferation test, LU99 (Embodiment 8); format: cell-based
Protocol: as §1, §2, §3, §4, §5, §6

[10] = tested on: U937 (human lymphoma cell); assay: MTS cell proliferation test, U937 (Embodiment 8); format: cell-based
Protocol: as §1, §2, §3, §4, §5, §6

[11] = tested on: H460 (human lung cancer cell); assay: MTS cell proliferation test, H460 (Embodiment 8); format: cell-based
Protocol: as §1, §2, §3, §4, §5, §6

tumor cells = assay: MTS cell proliferation test, all cancer cells of Embodiment 8; format: cell-based, human; conditions: summary of Table 2 in words
Protocol: as §1
as §2, with “cell. […]” for “cell.”
as §4
The inhibition rate (%) of the cell proliferation was obtained from the measured MTS value by the following formula. […]

[12] = tested on: RERF-LC-MA (human lung cancer cell); assay: MTS cell proliferation test, RERF-LC-MA (Embodiment 8); format: cell-based
Protocol: as §1, §2, §3, §4, §5, §6

[13] = tested on: U937 (human lymphoma cell); assay: MTS cell proliferation test, U937 (Embodiment 7); format: cell-based; conditions: for medicine effect in the cancer cell (U937): summary of Table 1 in words
Protocol: The test solution was prepared by dissolving the (compound 1) into the dimethylsulfoxide ([…]) with the concentration of 8 mg/ml.
The test was performed by using the U937 (human lymphoma cell) as the cancer cell and using the HEK293 (human fetus kidney cell) as the normal cell.
These cells were suspended in the each culture medium that the serum of 10% was added, and were dispensed in 96-well plate. And then, these were cultured in 5% CO2 at 37 degrees centigrade during a night. Next day, the test solution was prepared in the culture medium to the various concentrations (0, 4, 8, 16 μg/ml), and was dispensed into the plate that the cells were set preliminarily. And further, these were cultured in 5% CO2 at 37 degrees centigrade for three days.
The cell proliferation after the medicine addition was measured on the 3rd day from the 1st day after the medicine addition by the […] (Kit for cell proliferation test manufactured by Promega Company).
as §5
Because the value which was obtained by the above-mentioned formula represents the inhibition rate of the cell proliferation, the higher the numerionl value is, the higher the medicine effect is. It is deemed that the one whose value is 50% or more has the medicine effect.

Structure (SMILES)	Inhibition rate of cell proliferation after 3 days from medicine addition (%) ([1]; MKN-1, 10 μg/ml)	Inhibition rate of cell proliferation after 3 days from medicine addition (%) ([1]; MKN-1, 20 μg/ml)	Inhibition rate of cell proliferation after 3 days from medicine addition (%) ([2]; MKN-45, 10 μg/ml)	Inhibition rate of cell proliferation after 3 days from medicine addition (%) ([2]; MKN-45, 20 μg/ml)	Inhibition rate of cell proliferation after 3 days from medicine addition (%) ([3]; H2452, 10 μg/ml)	Inhibition rate of cell proliferation after 3 days from medicine addition (%) ([3]; H2452, 20 μg/ml)	Inhibition rate of cell proliferation after 3 days from medicine addition (%) ([4]; HT-29, 10 μg/ml)	Inhibition rate of cell proliferation after 3 days from medicine addition (%) ([4]; HT-29, 20 μg/ml)	Inhibition rate of cell proliferation after 3 days from medicine addition (%) ([5]; HCT116, 10 μg/ml)	Inhibition rate of cell proliferation after 3 days from medicine addition (%) ([5]; HCT116, 20 μg/ml)	Inhibition rate of cell proliferation after 3 days from medicine addition (%) ([6]; 10 μg/ml)	Inhibition rate of cell proliferation after 3 days from medicine addition (%) ([6]; 20 μg/ml)	Inhibition rate of cell proliferation after 3 days from medicine addition (%) ([7]; 10 μg/ml)	Inhibition rate of cell proliferation after 3 days from medicine addition (%) ([7]; 20 μg/ml)	Inhibition rate of cell proliferation after 3 days from medicine addition (%) ([8]; A549, 10 μg/ml)	Inhibition rate of cell proliferation after 3 days from medicine addition (%) ([8]; A549, 20 μg/ml)	Inhibition rate of cell proliferation after 3 days from medicine addition (%) ([9]; LU99, 10 μg/ml)	Inhibition rate of cell proliferation after 3 days from medicine addition (%) ([9]; LU99, 20 μg/ml)	Inhibition rate of cell proliferation after 3 days from medicine addition (%) ([10]; U937, 10 μg/ml)	Inhibition rate of cell proliferation after 3 days from medicine addition (%) ([10]; U937, 20 μg/ml)	also measured
NC1CCCC12CCCC2N.O=C1[O][Pt][O]C1=O [R medicine, ((R,R,R)cis,cis-spiro[4,4]nonane-1,6-diamine) oxalatoplatinum(II) complex]	⊚ (⊚: 76~100%)	⊚ (⊚: 76~100%)	⊚ (⊚: 76~100%)	⊚ (⊚: 76~100%)	◯ (◯: 51~75%)	◯ (◯: 51~75%)	◯ (◯: 51~75%)	⊚ (⊚: 76~100%)	⊚ (⊚: 76~100%)	⊚ (⊚: 76~100%)	⊚ (⊚: 76~100%)	⊚ (⊚: 76~100%)	⊚ (⊚: 76~100%)	⊚ (⊚: 76~100%)	◯ (◯: 51~75%)	◯ (◯: 51~75%)	⊚ (⊚: 76~100%)	⊚ (⊚: 76~100%)	⊚ (⊚: 76~100%)	⊚ (⊚: 76~100%)	Inhibition rate of cell proliferation after 3 days from medicine addition (%) ([1]; MKN-1, 5 μg/ml): ⊚ (⊚: 76~100%); Inhibition rate of cell proliferation after 3 days from medicine addition (%) ([2]; MKN-45, 5 μg/ml): ⊚ (⊚: 76~100%); Inhibition rate of cell proliferation after 3 days from medicine addition (%) ([3]; H2452, 5 μg/ml): Δ (Δ: 26~50%); Inhibition rate of cell proliferation after 3 days from medicine addition (%) ([4]; HT-29, 5 μg/ml): ◯ (◯: 51~75%); Inhibition rate of cell proliferation after 3 days from medicine addition (%) ([5]; HCT116, 5 μg/ml): ◯ (◯: 51~75%); Inhibition rate of cell proliferation after 3 days from medicine addition (%) ([6]; 5 μg/ml): ◯ (◯: 51~75%); Inhibition rate of cell proliferation after 3 days from medicine addition (%) ([7]; 5 μg/ml): ⊚ (⊚: 76~100%); Inhibition rate of cell proliferation after 3 days from medicine addition (%) ([8]; A549, 5 μg/ml): Δ (Δ: 26~50%); Inhibition rate of cell proliferation after 3 days from medicine addition (%) ([9]; LU99, 5 μg/ml): ⊚ (⊚: 76~100%); Inhibition rate of cell proliferation after 3 days from medicine addition (%) ([10]; U937, 5 μg/ml): ⊚ (⊚: 76~100%); Inhibition rate of cell proliferation after 3 days from medicine addition (%) ([11]; H460, 5 μg/ml): ◯ (◯: 51~75%); Inhibition rate of cell proliferation after 3 days from medicine addition (%) ([11]; H460, 10 μg/ml): ⊚ (⊚: 76~100%); Inhibition rate of cell proliferation after 3 days from medicine addition (%) ([11]; H460, 20 μg/ml): ⊚ (⊚: 76~100%); medicine effect for the many tumor cells (tumor cells): high medicine effect compared with the oxaliplatin; also recorded: higher in the effect; Inhibition rate of cell proliferation after 3 days from medicine addition (%) ([12]; 5 μg/ml): Δ (Δ: 26~50%); Inhibition rate of cell proliferation after 3 days from medicine addition (%) ([12]; 10 μg/ml): ◯ (◯: 51~75%); Inhibition rate of cell proliferation after 3 days from medicine addition (%) ([12]; 20 μg/ml): ◯ (◯: 51~75%)
O=C1[O][Pt]2([NH][C@H]3CCCC34CCC[C@@H]4[NH]2)[O]C1=O (stereo partly drawn) [compound 1, (cis,cis-spiro[4,4]nonane-1,6-diamine) oxalatoplatinum(II) complex]	–	–	–	–	–	–	–	–	–	–	–	–	–	–	–	–	–	–	–	–	medicine effect in the cancer cell (U937) [13]: remarkable medicine effect
O=C1[O][Pt]2([NH][C@@H]3CCCC[C@H]3[NH]2)[O]C1=O [oxaliplatin, reference compound]	◯ (◯: 51~75%)	⊚ (⊚: 76~100%)	⊚ (⊚: 76~100%)	⊚ (⊚: 76~100%)	Δ (Δ: 26~50%)	Δ (Δ: 26~50%)	Δ (Δ: 26~50%)	Δ (Δ: 26~50%)	◯ (◯: 51~75%)	◯ (◯: 51~75%)	Δ (Δ: 26~50%)	◯ (◯: 51~75%)	Δ (Δ: 26~50%)	◯ (◯: 51~75%)	X (X: 0~25%)	Δ (Δ: 26~50%)	◯ (◯: 51~75%)	◯ (◯: 51~75%)	⊚ (⊚: 76~100%)	⊚ (⊚: 76~100%)	Inhibition rate of cell proliferation for 1st to 3rd day from medicine addition (%) ([13]; U937, 4 μg/ml, 1st day): −5%; Inhibition rate of cell proliferation for 1st to 3rd day from medicine addition (%) ([13]; U937, 4 μg/ml, 2nd day): −26%; Inhibition rate of cell proliferation for 1st to 3rd day from medicine addition (%) ([13]; U937, 4 μg/ml, 3rd day): 12%; Inhibition rate of cell proliferation for 1st to 3rd day from medicine addition (%) ([13]; U937, 8 μg/ml, 1st day): −1%; Inhibition rate of cell proliferation for 1st to 3rd day from medicine addition (%) ([13]; U937, 8 μg/ml, 2nd day): −5%; Inhibition rate of cell proliferation for 1st to 3rd day from medicine addition (%) ([13]; U937, 8 μg/ml, 3rd day): 37%; Inhibition rate of cell proliferation for 1st to 3rd day from medicine addition (%) ([13]; U937, 16 μg/ml, 1st day): 0%; Inhibition rate of cell proliferation for 1st to 3rd day from medicine addition (%) ([13]; U937, 16 μg/ml, 2nd day): 30%; Inhibition rate of cell proliferation for 1st to 3rd day from medicine addition (%) ([13]; U937, 16 μg/ml, 3rd day): 73%; medicine effect in the cancer cell (U937) [13]: medicine effect was also recognized; Inhibition rate of cell proliferation after 3 days from medicine addition (%) ([11]; H460, 10 μg/ml): Δ (Δ: 26~50%); Inhibition rate of cell proliferation after 3 days from medicine addition (%) ([11]; H460, 20 μg/ml): Δ (Δ: 26~50%); Inhibition rate of cell proliferation after 3 days from medicine addition (%) ([12]; 10 μg/ml): X (X: 0~25%); Inhibition rate of cell proliferation after 3 days from medicine addition (%) ([12]; 20 μg/ml): X (X: 0~25%)
